Experimental data reported in patent publication US20130059096A1, “METHODS AND COATINGS FOR TREATING BIOFILMS” (President and Fellows of Harvard College, priority 2010, published 2013).
Read-outs that look alike come from different tables or passages of the source.

Key:
[1] = tested on: Bacillus subtilis NCIB3610; assay: Pellicle (biofilm) formation in liquid biofilm-inducing medium; assay type: cell-based; conditions: for Inhibition of biofilm formation (FIG. 5): MSgg medium; for minimum concentration (MIC for Minimal Inhibitory Concentration) needed to prevent biofilm formation: FIG. 2B, complete inhibition of pellicle formation; for Biofilm-inhibition assay for B. subtilis: summary statement, concentration not given
Description: (§1) Colony and pellicle formation. For colony formation on solid medium, cells were first grown to exponential growth phase in LB broth and 3 μl of culture were spotted onto solid MSgg medium containing 1.5% Bacto agar. The plates were incubated at 23° C. For pellicle formation in liquid medium, cells were grown to exponential phase and 6 μl of culture were mixed with 6 ml of medium in a 12-well plate (VWR). Plates were incubated at 23° C. Images of colonies and pellicles were taken using a SPOT camera (Diagnostic Instruments, USA).
Preparing conditioned medium. Cells were grown in LB medium to exponential phase. 0.1 ml of culture was added to 100 ml of MSgg medium and grown without shaking in a 500 ml beaker at 23° C. Next, pellicles and conditioned medium was collected by centrifugation at 8,000 rpm for 15 min. The conditioned medium (supernatant fluid) was removed and filtered through a 0.22 μm filter. The filtrates were stored at 4° C. For further purification the biofilm-inhibiting activity was fractionated on a C-18 Sep Pak cartridge using stepwise elution of 0% to 100% methanol with steps of 5%.
To investigate whether mature biofilms produce a factor that triggers biofilm disassembly, the effect of concentrated and partially purified extracts of conditioned medium on pellicle formation when added to fresh medium was assayed. To this end, conditioned medium from an eight-day-old culture was applied to a C18 Sep Pak column. Concentrated eluate from the column was then added to a freshly inoculated culture. […] Further purification of the factor was achieved by eluting the cartridge in step-wise fashion with increasing concentrations of methanol.
Next, the minimum concentration (MIC for Minimal Inhibitory Concentration) needed to prevent biofilm formation was determined.

[2] = tested on: S. aureus (strain SCO1); assay: Biofilm formation on polystyrene, crystal violet staining; assay type: cell-based, Staphylococcus aureus; conditions: Staphylococcus aureus, read-out: % Inhibition relative to control (0%, <50%, 50-90%, >90%)
Description: Crystal violet staining Crystal violet staining was done as described previously (O'Toole et al., Mol. […] Wells were stained with 500 μl of 1.0% Crystal-violet dye, rinsed twice with 2 ml double-distilled water and thoroughly dried.
The effect of D-amino acids on biofilm formation by other bacteria was examined. The pathogenic bacterium Staphylococcus aureus forms biofilms on plastic surfaces (Otto, Curr. Top. Microbiol. Immunol. 322:207 (2008)), which can be detected by washing away unbound cells and staining the bound cells with crystal violet. […] Additionally added to the wells were no amino acids (untreated), D-tyrosine (50 μM) or the D-amino acid mixture ([…] each). Cells bound to the polystyrene were visualized by washing away unbound cells and then staining with crystal violet.
(§2) For experiments reported in Table 1, the organism/strain was S.a. Harvard SCO1, the culture medium was TSB and the cell inoculation was at 2×10^9 cfu. For experiments reported in Table 2, the organism/strain was […], the culture medium was M63 and the cell inoculation was at 1.5×10^9 cfu. Biofilm was visualized using the crystal violet method. The data is shown below in Tables 1 and 2:
For experiments reported in Tables 3 and 4, the organism/strain was S.a. Harvard SCO1, the culture medium was TSB and the cell inoculation was at 2×10^9 cfu. Biofilm was visualized using the crystal violet method.

[3] = tested on: Pseudomonas aeruginosa PA14; assay: as above; assay type: cell-based; conditions: Pseudomonas aeruginosa, read-out: % Inhibition relative to control (0%, <50%, 50-90%, >90%)
Description: Crystal violet staining Crystal violet staining was done as described previously (O'Toole et al., Mol. Microbiol. 30:295 (1998)) except that the cells were grown in 6-well plates. Wells were stained with 500 μl of 1.0% Crystal-violet dye, rinsed twice with 2 ml double-distilled water and thoroughly dried.
P. aeruginosa strain […] was grown in 12-well polystyrene plates for 48 hours at 30° C. in M63 medium containing glycerol (0.2%) and Casamino acids (20 μg/ml). Additionally added to the wells were no amino acids (untreated), D-tyrosine or the D-amino acid equimolar mixture. Cells bound to the polystyrene were visualized by washing away unbound cells and then staining with crystal violet. Wells were stained with 500 μl of 1.0% Crystal-violet dye, rinsed twice with 2 ml double-distilled water and thoroughly dried.
as §2, with “method.” for “method. The data is shown below in Tables 1 and 2:”

[4] = tested on: P.a. Harvard PA14; assay: Biofilm (colony architecture) formation on defined M63 medium; assay type: cell-based, Pseudomonas aeruginosa; conditions: 500 μM
From the text: Similarly to Bacillus subtilis, Pseudomonas aeruginosa forms a complex architecture on defined medium. These complex structures require the proper formation and assembly of the extra-cellular matrix. […] For these experiments, the organism/strain was P.a. Harvard PA14, the culture medium was M63 and the cell inoculation was at 1.5×10^9 cfu.

[5] = tested on: Pseudomonas aeruginosa; assay: Attached single cells in well plate, Syto-9 staining; assay type: cell-based; conditions: Pseudomonas aeruginosa, 12 h, read-out: % Inhibition relative to control (0%, <50%, 50-90%, >90%)
Description: An alternative method to observe biofilm formation on a 6 well plate with or without D-amino acids and using Syto-9 staining was as follows: Pseudomonas aeruginosa biofilms were washed twice with PBS and then fixed for at least an hour in 5% Glutaraldehyde in PBS. The fixed biofilms were then rinsed once again with PBS and soaked in 0.1% v/v Triton X-100 in PBS (PBST) for 15 minutes. The solution was exchanged with 0.1 nM […] (Invitrogen) in cold PBST and gently rocked in the dark for at least 15 minutes. Fluorescence images of the biofilms were captured with a Leica DMRX compound microscope using a Xe lamp and a K3 Leica filtercube. […] The amount of attached single cells was quantified using image J. The decrease in the amount of cells attached to the epoxy surfaces soaked with D-aa compared with the L-aa control was substantially more.

[6] = tested on: Bacillus subtilis NCIB3610; assay: Colony biofilm formation on solid MSgg medium; assay type: cell-based; conditions: 8.5 mM, 4 days
Description: as §1

[7] = tested on: Bacillus subtilis; assay: Cell growth in MSgg medium with shaking; assay type: cell-based; conditions: 8.5 mM
[8] = tested on: matrix operons eps and yqxM; assay: Expression of PyqxM-lacZ and PepsA-lacZ (β-galactosidase activity); assay type: cell-based, Bacillus subtilis; conditions: 8.5 mM, strains FC122 and FC5, MSgg, shaking
Description: Assays of β-galactosidase activity. Cells were cultured in MSgg medium at 37° C. in a water bath with shaking 1 ml of culture was collected at each time point. β-galactosidase activity was determined as described previously (Chai et al., Mol. Microbiol. 67:254 (2008)).

[9] = Table 3, 10 μM, 24 h/37° C., polystyrene, TSB
[10] = Table 3, 100 μM, 24 h/37° C., polystyrene, TSB
[11] = Table 3, 500 μM, 24 h/37° C., polystyrene, TSB
[12] = Table 1, 100 nM, 24 h/37° C., polystyrene, TSB
[13] = Table 1, 10 μM, 24 h/37° C., polystyrene, TSB
[14] = Table 1, 100 μM, 24 h/37° C., polystyrene, TSB
[15] = Table 1, 500 μM, 24 h/37° C., polystyrene, TSB
[16] = PA14, Table 2, 100 nM, 48 h/30° C., polystyrene, M63

For `N[C@H](Cc1c[nH]c2ccccc12)C(=O)O` [D-tryptophan], the “Inhibition of biofilm formation (FIG. 5)” value ([1]; 0.5 mM, 3 days) was “active in inhibiting biofilm formation”, the “minimum concentration (MIC for Minimal Inhibitory Concentration) needed to prevent biofilm formation” value [1] was “around 1 mM” and the “Biofilm-inhibition assay for B. subtilis” value [1] was “significant inhibition of biofilm growth”. For the same molecule, the inhibition at 0.1 µM ([2]; 24 h) was 0%, the inhibition at 10 µM ([2]; 24 h) was 0% and the inhibition at 100 µM ([2]; 24 h) was under 50%. The inhibition at 500 µM ([2]; 24 h) was under 50%, the inhibition at 0.1 µM ([3]; PA14, 48 h) was 0% and the inhibition at 10 µM ([3]; PA14, 48 h) was under 50%. The inhibition at 100 µM ([3]; PA14, 48 h) was 50 to 90%, the inhibition at 500 µM ([3]; PA14, 48 h) was 50 to 90% and the “Biofilm formation on defined medium (FIG. 20)” value (“Biofilm formation … (FIG. 20)” for short) [4] was “inhibited biofilm formation”.
Work on `O=C(O)[C@H]1CCCN1` [D-proline] yielded an inhibition at 10 µM [2, 9] of under 50%, an inhibition at 100 µM [2, 10] of under 50% and an inhibition at 500 µM [2, 11] of over 90%. It also gave an inhibition at 1000 µM ([2]; Table 3, 1 mM, 24 h/37° C., polystyrene, TSB) of over 90%.
In the case of `N[C@H](Cc1ccccc1)C(=O)O` [D-phenylalanine], the “Biofilm-inhibition assay for B. subtilis” value [1] is reported as “not effective”, the inhibition at 10 µM [2, 9] is reported as under 50% and the inhibition at 100 µM [2, 10] is reported as under 50%. It also gave an inhibition at 500 µM [2, 11] of over 90%.
`CSCC[C@@H](N)C(=O)O` [D-methionine] was tested, and the “Inhibition of biofilm formation (FIG. 5)” value ([1]; 2 mM, 3 days) was “active in inhibiting biofilm formation”, the “minimum concentration (MIC for Minimal Inhibitory Concentration) needed to prevent biofilm formation” value [1] was “around 1 mM” and the “Biofilm-inhibition assay for B. subtilis” value [1] was “significant inhibition of biofilm growth”. The inhibition at 0.1 µM [2, 12] was 0%, the inhibition at 10 µM [2, 13] was 0% and the inhibition at 100 µM [2, 14] was 0%. For the same molecule, the inhibition at 500 µM [2, 15] was 0% and the inhibition at 0.1 µM [3, 16] was 0%.
`N[C@@H](Cc1ccc(O)cc1)C(=O)O` [L-tyrosine, reference compound] was tested, and the “Biofilm formation … (FIG. 20)” value [4] was “did not” and the inhibition at 500 µM [5] was 0%.
In the case of `CSCC[C@H](N)C(=O)O` [L-methionine, reference compound], the “Inhibition of biofilm formation (FIG. 5)” value ([1]; 5 mM, 3 days) is reported as “Only the D-amino acids were active”.
With `N[C@@H](Cc1c[nH]c2ccccc12)C(=O)O` [L-tryptophan, reference compound] the “Inhibition of biofilm formation (FIG. 5)” value ([1]; 5 mM, 3 days) was “Only the D-amino acids were active” and the “Biofilm formation … (FIG. 20)” value [4] was “did not”.
In the case of `C[C@@H](N)C(=O)O` [D-alanine], the “Biofilm-inhibition assay for B. subtilis” value [1] is reported as “not effective”.
For `CC(C)C[C@@H](N)C(=O)O` [D-leucine], the “Effect on pellicle formation (FIG. 2A)” value ([1]; 8.5 mM, freshly inoculated culture, biofilm-inducing medium, 3 days) was “significant inhibition of biofilm growth”, the “minimum concentration (MIC for Minimal Inhibitory Concentration) needed to prevent biofilm formation” value [1] was “around 1 mM” and the “Biofilm-inhibition assay for B. subtilis” value [1] was “significant inhibition of biofilm growth”. For the same molecule, the “Biofilm formation on solid MSgg medium (FIG. 6)” value [6] was “inhibited biofilm formation”, the “Cell growth (FIG. 8)” value [7] was “substantially the same as the untreated sample” and the “yqxM and eps expression (FIG. 9A, 9B)” value [8] was “substantially the same as the untreated sample”. It also gave an inhibition at 0.1 µM [2, 12] of 0%, an inhibition at 10 µM [2, 13] of 0% and an inhibition at 100 µM [2, 14] of 0%. The inhibition at 500 µM [2, 15] was 0%, the inhibition at 0.1 µM [3, 16] was 0% and the inhibition at 10 µM ([3]; PA14, Table 2, 10 μM, 48 h/30° C., polystyrene, M63) was 0%. For the same molecule, the inhibition at 100 µM ([3]; PA14, Table 2, 100 μM, 48 h/30° C., polystyrene, M63) was 0% and the inhibition at 500 µM ([3]; PA14, Table 2, 500 μM, 48 h/30° C., polystyrene, M63) was 0%.
